From paper PMC7022188 (Proceedings of the National Academy of Sciences of the …, 2020)

Legend:
[1] = biological target: T1, ctPrp2-ctSpp2_211–254 complex (ctPrp2_270–921 with ctSpp2G-patch) (Thermochaetoides thermophila, UniProt G0SEG4); test: ITC; format: binding
T1 sequence (G0SEG4 270-921): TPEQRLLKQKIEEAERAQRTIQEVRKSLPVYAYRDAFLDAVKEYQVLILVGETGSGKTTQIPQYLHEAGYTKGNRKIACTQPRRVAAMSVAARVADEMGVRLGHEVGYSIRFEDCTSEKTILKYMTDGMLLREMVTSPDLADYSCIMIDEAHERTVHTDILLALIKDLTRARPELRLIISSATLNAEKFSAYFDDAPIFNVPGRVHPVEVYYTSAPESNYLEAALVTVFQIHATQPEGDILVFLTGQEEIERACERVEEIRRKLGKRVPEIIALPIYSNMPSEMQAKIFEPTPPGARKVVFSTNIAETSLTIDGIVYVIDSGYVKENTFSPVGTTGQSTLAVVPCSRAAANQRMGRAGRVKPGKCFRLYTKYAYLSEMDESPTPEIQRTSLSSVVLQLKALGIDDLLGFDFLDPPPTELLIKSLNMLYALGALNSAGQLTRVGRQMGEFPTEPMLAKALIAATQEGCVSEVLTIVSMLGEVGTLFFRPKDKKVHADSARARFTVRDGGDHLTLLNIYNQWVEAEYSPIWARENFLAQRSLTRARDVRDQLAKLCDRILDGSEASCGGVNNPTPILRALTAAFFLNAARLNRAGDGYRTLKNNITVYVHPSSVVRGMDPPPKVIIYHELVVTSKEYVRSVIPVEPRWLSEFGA
T1 sequence (G0SFN3 211-254 partner): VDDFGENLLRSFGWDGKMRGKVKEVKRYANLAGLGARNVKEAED

[2] = biological target: ctPrp2 as used for ITC and for in-solution cross-linking (Chaetomium thermophilum); test: ITC

Kd [1]	Kd [2]	Compound
~172 nM	–	Nc1ncnc2c1ncn2[C@@H]1O[C@H](COP(=O)(O)OP(=O)(O)O)[C@@H](O)[C@H]1O [ADP]
–	720 nM	ctSpp2_(211–254), G-patch domain of Spp2 from Chaetomium thermophilum (domain or fragment)
